Test results taken from ChEMBL document CHEMBL1144730, “Novel antibacterial azetidine lincosamides” (Bioorg Med Chem Lett, 2008).
Values after ≈ are worked out from the molar mass of the structure shown.

Columns and labels:
Type in all cases: functional
Streptococcus pneumoniae = assay: Antibacterial activity against Streptococcus pneumoniae by broth microdilution method
Staphylococcus aureus [1] = assay: Antibacterial activity against macrolide, licosamide and streptogramin resistant Staphylococcus aureus by broth microdilution method
Staphylococcus aureus [2] = assay: Antibacterial activity against Staphylococcus aureus by broth microdilution method
Enterococcus faecium = assay: Antibacterial activity against Enterococcus faecium by broth microdilution method
Enterococcus faecalis = assay: Antibacterial activity against Enterococcus faecalis by broth microdilution method
Bacteroides fragilis = assay: Antibacterial activity against Bacteroides fragilis by broth microdilution method
Staphylococcus aureus [3] = assay: Antibacterial activity against Staphylococcus aureus Smith infected iv dosed mouse septicemia model
Escherichia coli = assay: Inhibition of protein synthesis in Escherichia coli by transcription/translation inhibition assay
Staphylococcus aureus [4] = assay: Antibacterial activity against Staphylococcus aureus Smith infected po dosed mouse septicemia model

**Q.** With CS[C@H]1O[C@H]([C@H](NC(=O)[C@H]2NC[C@@H]2CCC(F)F)[C@H](C)Cl)[C@H](O)[C@H](O)[C@H]1O as the molecule, how does the MIC (Streptococcus pneumoniae) read?
**A.** 0.125 µg/mL (≈ 0.289 µM)

**Q.** What about the MIC (Staphylococcus aureus [1]) of the same molecule?
**A.** > 4 µg/mL

**Q.** And the MIC (Staphylococcus aureus [2])?
**A.** 1 µg/mL (≈ 2.31 µM)

**Q.** What about the MIC (Enterococcus faecium) of the same molecule?
**A.** 0.5 µg/mL (≈ 1.15 µM)

**Q.** And the MIC (Enterococcus faecalis)?
**A.** 2 µg/mL (≈ 4.62 µM)

**Q.** What about the MIC (Bacteroides fragilis) of the same molecule?
**A.** 1 µg/mL (≈ 2.31 µM)

**Q.** Which results are given for CS[C@H]1O[C@H]([C@H](NC(=O)[C@H]2NC[C@@H]2CCC2CCC2)[C@H](C)Cl)[C@H](O)[C@H](O)[C@H]1O?
**A.** MIC (Streptococcus pneumoniae): 0.125 µg/mL (≈ 0.286 µM); MIC (Staphylococcus aureus [1]): > 4 µg/mL; MIC (Staphylococcus aureus [2]): 0.25 µg/mL (≈ 0.572 µM); MIC (Enterococcus faecium): 0.25 µg/mL (≈ 0.572 µM); MIC (Enterococcus faecalis): 0.25 µg/mL (≈ 0.572 µM); MIC (Bacteroides fragilis): 0.25 µg/mL (≈ 0.572 µM)

**Q.** For CS[C@H]1O[C@H]([C@H](NC(=O)[C@H]2NC[C@@H]2CCC2CC2)[C@H](C)Cl)[C@H](O)[C@H](O)[C@H]1O, which MIC (Streptococcus pneumoniae) is on record?
**A.** 0.125 µg/mL (≈ 0.296 µM)

**Q.** And the MIC (Staphylococcus aureus [1])?
**A.** > 4 µg/mL

**Q.** What about the MIC (Staphylococcus aureus [2]) of the same molecule?
**A.** 0.25 µg/mL (≈ 0.591 µM)

**Q.** And the MIC (Enterococcus faecium)?
**A.** 0.125 µg/mL (≈ 0.296 µM)

**Q.** And the MIC (Enterococcus faecalis)?
**A.** 0.25 µg/mL (≈ 0.591 µM)

**Q.** And the ED50 (Staphylococcus aureus [3])?
**A.** 3 mg/kg

**Q.** And the MIC (Bacteroides fragilis)?
**A.** 0.25 µg/mL (≈ 0.591 µM)

**Q.** And the IC50 (Escherichia coli)?
**A.** 7.8 µM

**Q.** CCCC[C@H]1CN(CCO)[C@@H]1C(=O)N[C@@H]([C@H]1O[C@H](SC)[C@H](O)[C@@H](O)[C@H]1O)[C@H](C)Cl was tested. Which MIC (Streptococcus pneumoniae) did it give?
**A.** 0.125 µg/mL (≈ 0.275 µM)

**Q.** And the MIC (Staphylococcus aureus [1])?
**A.** > 8 µg/mL

**Q.** And the MIC (Staphylococcus aureus [2])?
**A.** 0.5 µg/mL (≈ 1.1 µM)

**Q.** And the MIC (Enterococcus faecium)?
**A.** 0.25 µg/mL (≈ 0.549 µM)

**Q.** What about the MIC (Enterococcus faecalis) of the same molecule?
**A.** 0.5 µg/mL (≈ 1.1 µM)

**Q.** What about the MIC (Bacteroides fragilis) of the same molecule?
**A.** 0.5 µg/mL (≈ 1.1 µM)

**Q.** CS[C@H]1O[C@H]([C@H](NC(=O)[C@H]2NC[C@@H]2CCCC2CC2)[C@H](C)Cl)[C@H](O)[C@H](O)[C@H]1O was tested. Which MIC (Streptococcus pneumoniae) did it give?
**A.** 0.06 µg/mL (≈ 0.137 µM)

**Q.** What about the MIC (Staphylococcus aureus [1]) of the same molecule?
**A.** > 4 µg/mL

**Q.** And the MIC (Staphylococcus aureus [2])?
**A.** 0.125 µg/mL (≈ 0.286 µM)

**Q.** What about the MIC (Enterococcus faecium) of the same molecule?
**A.** 0.125 µg/mL (≈ 0.286 µM)

**Q.** What about the MIC (Enterococcus faecalis) of the same molecule?
**A.** 0.25 µg/mL (≈ 0.572 µM)

**Q.** What about the ED50 (Staphylococcus aureus [3]) of the same molecule?
**A.** 3.1 mg/kg

**Q.** What about the MIC (Bacteroides fragilis) of the same molecule?
**A.** 0.25 µg/mL (≈ 0.572 µM)

**Q.** And the IC50 (Escherichia coli)?
**A.** 2.75 µM

**Q.** For CCCC[C@H]1CN(C)[C@@H]1C(=O)N[C@@H]([C@H]1O[C@H](SC)[C@H](O)[C@@H](O)[C@H]1O)[C@H](C)Cl, which MIC (Streptococcus pneumoniae) is on record?
**A.** 0.5 µg/mL (≈ 1.18 µM)

**Q.** What about the MIC (Staphylococcus aureus [1]) of the same molecule?
**A.** > 4 µg/mL

**Q.** What about the MIC (Staphylococcus aureus [2]) of the same molecule?
**A.** 1 µg/mL (≈ 2.35 µM)

**Q.** And the MIC (Enterococcus faecium)?
**A.** 1 µg/mL (≈ 2.35 µM)

**Q.** What about the MIC (Enterococcus faecalis) of the same molecule?
**A.** 2 µg/mL (≈ 4.71 µM)

**Q.** And the MIC (Bacteroides fragilis)?
**A.** 0.125 µg/mL (≈ 0.294 µM)

**Q.** What does the source list for CCC[C@H]1CN[C@@H]1C(=O)N[C@@H]([C@H]1O[C@H](SC)[C@H](O)[C@@H](O)[C@H]1O)[C@H](C)Cl?
**A.** MIC (Streptococcus pneumoniae): 0.125 µg/mL (≈ 0.315 µM); MIC (Staphylococcus aureus [1]): > 8 µg/mL; MIC (Staphylococcus aureus [2]): 0.5 µg/mL (≈ 1.26 µM); MIC (Enterococcus faecium): 0.5 µg/mL (≈ 1.26 µM); MIC (Enterococcus faecalis): 0.5 µg/mL (≈ 1.26 µM); MIC (Bacteroides fragilis): 0.5 µg/mL (≈ 1.26 µM); IC50 (Escherichia coli): 12.8 µM

**Q.** CCCCC[C@H]1CN[C@@H]1C(=O)N[C@@H]([C@H]1O[C@H](SC)[C@H](O)[C@@H](O)[C@H]1O)[C@H](C)Cl was tested. Which MIC (Streptococcus pneumoniae) did it give?
**A.** 0.03 µg/mL (≈ 0.0706 µM)

**Q.** What about the MIC (Staphylococcus aureus [1]) of the same molecule?
**A.** > 8 µg/mL

**Q.** What about the MIC (Staphylococcus aureus [2]) of the same molecule?
**A.** 0.06 µg/mL (≈ 0.141 µM)

**Q.** And the ED50 (Staphylococcus aureus [4])?
**A.** 28 mg/kg

**Q.** And the MIC (Enterococcus faecium)?
**A.** 0.125 µg/mL (≈ 0.294 µM)

**Q.** And the MIC (Enterococcus faecalis)?
**A.** 0.25 µg/mL (≈ 0.588 µM)

**Q.** And the ED50 (Staphylococcus aureus [3])?
**A.** 1.7 mg/kg

**Q.** And the MIC (Bacteroides fragilis)?
**A.** 0.125 µg/mL (≈ 0.294 µM)

**Q.** What about the IC50 (Escherichia coli) of the same molecule?
**A.** 1.13 µM

**Q.** Which results are given for CS[C@H]1O[C@H]([C@H](NC(=O)[C@H]2NC[C@@H]2CC2CC2)[C@H](C)Cl)[C@H](O)[C@H](O)[C@H]1O?
**A.** MIC (Streptococcus pneumoniae): 0.125 µg/mL (≈ 0.306 µM); MIC (Staphylococcus aureus [1]): > 8 µg/mL; MIC (Staphylococcus aureus [2]): 0.5 µg/mL (≈ 1.22 µM); MIC (Enterococcus faecium): 0.5 µg/mL (≈ 1.22 µM); MIC (Enterococcus faecalis): 1 µg/mL (≈ 2.45 µM); MIC (Bacteroides fragilis): 0.5 µg/mL (≈ 1.22 µM); IC50 (Escherichia coli): 11.1 µM

**Q.** What does the source list for CS[C@H]1O[C@H]([C@H](NC(=O)[C@H]2NC[C@@H]2CCCC2CCC2)[C@H](C)Cl)[C@H](O)[C@H](O)[C@H]1O?
**A.** MIC (Streptococcus pneumoniae): 0.016 µg/mL (≈ 0.0355 µM); MIC (Staphylococcus aureus [1]): > 4 µg/mL; MIC (Staphylococcus aureus [2]): 0.03 µg/mL (≈ 0.0665 µM); MIC (Enterococcus faecium): 0.06 µg/mL (≈ 0.133 µM); MIC (Enterococcus faecalis): 0.06 µg/mL (≈ 0.133 µM); ED50 (Staphylococcus aureus [3]): > 10 mg/kg; MIC (Bacteroides fragilis): 0.25 µg/mL (≈ 0.554 µM); IC50 (Escherichia coli): 2.44 µM

**Q.** How did the MIC (Streptococcus pneumoniae) turn out when CCCC[C@H]1CN[C@@H]1C(=O)N[C@@H]([C@H]1O[C@H](SC)[C@H](O)[C@@H](O)[C@H]1O)[C@H](C)Cl was run?
**A.** 0.06 µg/mL (≈ 0.146 µM)

**Q.** And the MIC (Staphylococcus aureus [1])?
**A.** > 8 µg/mL

**Q.** And the MIC (Staphylococcus aureus [2])?
**A.** 0.125 µg/mL (≈ 0.304 µM)

**Q.** And the ED50 (Staphylococcus aureus [4])?
**A.** 10.8 mg/kg

**Q.** What about the MIC (Enterococcus faecium) of the same molecule?
**A.** 0.125 µg/mL (≈ 0.304 µM)

**Q.** What about the MIC (Enterococcus faecalis) of the same molecule?
**A.** 0.125 µg/mL (≈ 0.304 µM)

**Q.** What about the ED50 (Staphylococcus aureus [3]) of the same molecule?
**A.** 1.1 mg/kg

**Q.** And the MIC (Bacteroides fragilis)?
**A.** 0.125 µg/mL (≈ 0.304 µM)

**Q.** What about the IC50 (Escherichia coli) of the same molecule?
**A.** 0.36 µM

**Q.** Which results are given for CS[C@H]1O[C@H]([C@H](NC(=O)[C@H]2NC[C@@H]2CCC(C)C)[C@H](C)Cl)[C@H](O)[C@H](O)[C@H]1O?
**A.** MIC (Streptococcus pneumoniae): 0.125 µg/mL (≈ 0.294 µM); MIC (Staphylococcus aureus [1]): > 8 µg/mL; MIC (Staphylococcus aureus [2]): 0.5 µg/mL (≈ 1.18 µM); MIC (Enterococcus faecium): 0.5 µg/mL (≈ 1.18 µM); MIC (Enterococcus faecalis): 0.5 µg/mL (≈ 1.18 µM); MIC (Bacteroides fragilis): 0.5 µg/mL (≈ 1.18 µM); IC50 (Escherichia coli): 15.5 µM

**Q.** What does the source list for CCC[C@@H]1C[C@@H](C(=O)N[C@@H]([C@H]2O[C@H](SC)[C@H](O)[C@@H](O)[C@H]2O)[C@H](C)Cl)N(C)C1 [CLINDAMYCIN]?
**A.** MIC (Streptococcus pneumoniae): 0.06 µg/mL (≈ 0.141 µM); MIC (Staphylococcus aureus [1]): > 8 µg/mL; MIC (Staphylococcus aureus [2]): 0.125 µg/mL (≈ 0.294 µM); ED50 (Staphylococcus aureus [4]): 19.9 mg/kg; MIC (Enterococcus faecium): 0.125 µg/mL (≈ 0.294 µM); MIC (Enterococcus faecalis): 0.25 µg/mL (≈ 0.588 µM); ED50 (Staphylococcus aureus [3]): 2.8 mg/kg
